Here are results for 1 molecule from patent US20230339977A1, “SUBSTITUTED HETEROARYL COMPOUND, AND COMPOSITION AND APPLICATION THEREOF” (SUNSHINE LAKE PHARMA CO., LTD., priority 2020, published 2023).

The subject of series [1] is JAK1/TYK2. The experiment in a line: Cell level activity test of JAK1/TYK2 (IFN-α induced STAT3 phosphorylation in PBMC). It is filed as cell-based. The following applies: Homo sapiens; P-STAT3 by ELISA in PBMC, compound 1 h, IFN-α 5000 U/mL 15 min; read-out: IC50 nM (JAK 1 /TYK2). A general note: ELISA stands for enzyme-linked immunosorbent assay.
Series [2] is described as follows: Stability in rat liver microsomes. It is filed as in vitro ADME. On the procedure: The stability of the compounds of the present invention in human and rat liver microsomes can be tested by the following two methods:
Human or rat liver microsomes were incubated in polypropylene tubes in duplicate wells. A typical incubation mixture included human or rat liver microsomes (0.5 mg protein/mL), target compound (5 µM), and a total volume of 200 µL of NADPH (1.0 mM) potassium phosphate buffer (PBS, 100 mM, pH 7.4), the compound was dissolved in DMSO and diluted with PBS, the final concentration of the DMSO solution was 0.05%. Human or rat liver microsomes were incubated at 37° C. in an air-connected water bath. After pre-incubation for 3 minutes, […] was added to start the reaction. The same volume of ice-cold acetonitrile was added to terminate the reaction at different time points (0, 5, 10, 15, 30 and 60 min). Samples were stored at -80° C. until LC/MS/MS analysis.
The linear concentration range of each target compound was determined, and then, the concentration of the target compounds in the human or rat liver microsomes incubation mixture was determined by LC/MS/MS method.
Parallel incubations were performed using denatured microsomes as a negative control and dextromethorphan (70 µM) as a positive control. Negative control was incubated at 37° C., the reaction was terminated at different time points (0, 15 and 60 minutes); positive control was incubated at 37° C., the reaction was terminated at different time points (0, 5, 10, 15, 30 and 60 minutes). Positive and negative control samples were used in each assay to ensure the integrity of the microsomal incubation system.
In addition, the stability data of the compounds of the present invention in human or rat liver microsomes can also be obtained from the following tests:
Human or rat liver microsomes were incubated in polypropylene tubes in duplicate wells. A typical incubation mixture included human or rat liver microsomes (final concentration: 0.5 mg protein/mL), target compound (final concentration: 1.5 µM) and a total volume of 30 µL of K-buffer solution (containing 1.0 mM EDTA, 100 mM, pH 7.4). Compounds were dissolved in DMSO and diluted with K-buffer solution, the final concentration of DMSO was 0.2%. […]
For each reaction, in vivo intrinsic hepatic clearance CLint is extrapolated by plotting the compound concentration (expressed as a percentage) in human or rat liver microsomal incubations as a percentage relative to time zero (ref.: Naritomi Y, Terashita S, Kimura S, Suzuki A, Kagayama A, Sugiyama Y. Prediction of human hepatic clearance from in vivo animal experiments and in vitro metabolic studies with liver microsomes from animals and humans. Drug Metabolism and Disposition 2001, 29: 1316-1324.).
On the technique in general: Microsomes from liver hold many membrane-bound enzymes, among them those of drug oxidation.

Series [3] concerns P-STAT3. The experiment in a line: Effect of TYK2 inhibitor on P-STAT3 expression in PBMC induced by IFN-α (Table 3, P-STAT3 (h)). It is filed as cell-based. The following applies: Homo sapiens; P-STAT3 by ELISA, PBMC stimulated with IFN-α 5000 U/mL. As to the method:
Whole blood was collected from healthy subjects, anticoagulated with heparin sodium, and PBMC (human peripheral blood mononuclear cells) were extracted. PBMC were seeded in 96-well culture plates at a density of 1*106/well. The initial concentration of the positive drug BMS986165 was 1000 nM, after diluting 10 times, the positive drug BMS986165 was diluted 8 concentrations by 3 times; the concentration of the other tested compounds was 333 nM. Positive wells and negative wells were added with the same volume of DMSO as the compound, and the final concentration of DMSO was 0.5%. After the compound was added, the cells were incubated at 37° C. for 1 h, and then stimulated by the addition of IFN-α at a final concentration of 5000 U/mL. An equal volume of medium was added to the negative wells and incubated for 15 min. The cells were centrifuged to remove the supernatant, and lysed, and the P-STAT3 was measured according to the instructions of the ELISA kit, the absorbance was read at 450 nm, and the IC50 value or inhibition rate was calculated.
CTLL-2, P-STAT3 and TF-1 cells were seeded in a 96-well culture plate at a density of 20,000/well with 90 µL per well, and the blank well was an equal amount of complete medium. […]

For `CC(=O)Nc1cc2c(-c3ccc4c(n3)C3(CCOC3)OC4)cn(C)c2cn1` (stereo not shown) [Example 2, N-(3-(4,5-Dihydro-2H,5′H-Spiro[Furan-3,7′-Furo[3,4-b]Pyridin]-2′-yl)-1-Methyl-1H-Pyrrolo[2,3-c]Pyridin-5-yl)Acetamide], the IC50 in series [1] and in series [3] was 95.8 nM each time. Moreover, the CLint scaled – broadly, the rate of metabolic loss divided by the concentration – in series [2] (pH 7.4, in vivo intrinsic hepatic clearance extrapolated) is 15.4 mL/min/kg. Besides, the half-life in series [2] (rat, pH 7.4, read-out: Rat T½) stood at 2.69 h.
